What was measured:
KRAS-G12C/SOS1 = target: T1, KRAS-G12C/SOS1 (Homo sapiens, UniProt Q07889); assay: biochemical
T1 sequence (Q07889 564-1049): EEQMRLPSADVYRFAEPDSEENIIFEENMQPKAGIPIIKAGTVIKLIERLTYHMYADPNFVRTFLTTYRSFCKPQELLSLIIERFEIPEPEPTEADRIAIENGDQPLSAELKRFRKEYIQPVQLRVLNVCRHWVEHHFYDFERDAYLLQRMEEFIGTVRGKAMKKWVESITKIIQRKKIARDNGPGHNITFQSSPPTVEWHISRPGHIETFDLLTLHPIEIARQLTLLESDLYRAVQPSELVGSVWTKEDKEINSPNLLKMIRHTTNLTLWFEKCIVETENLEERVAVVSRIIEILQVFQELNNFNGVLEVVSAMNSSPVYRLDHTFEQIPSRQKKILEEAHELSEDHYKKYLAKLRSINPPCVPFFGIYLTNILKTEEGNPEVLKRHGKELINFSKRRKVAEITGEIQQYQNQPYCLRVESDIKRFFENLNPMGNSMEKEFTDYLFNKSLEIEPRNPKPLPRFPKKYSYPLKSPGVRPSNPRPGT

K562 cells = assay: Assay for proliferation inhibitory activity of K562 cells; assay type: cell-based; conditions: Homo sapiens, 72 h, CCK-8, read-out: K562 cell proliferation inhibition IC50
Protocol: Test Example 4 Assay for Proliferation Inhibitory Activity of K562 Cells
The K562 cell line can be purchased from the American Type Culture Collection (ATCC).
The K562 cells in a good growth state were added to a centrifuge tube with the cell density adjusted to 3×10^4/mL, and seeded on a 96-well plate (100 μL/well). The cells were cultured overnight in a cell incubator, the compound was loaded using a nanoliter pipettor to allow the final compound concentration to be 10000 nM to 4.6 nM, 2 replicate wells were set and control was set.

SOS1cat / KRAS G12C = target: T2, SOS1cat / KRAS G12C (Homo sapiens, UniProt Q07889); assay: Guanine nucleotide exchange test (HTRF); assay type: biochemical; conditions: SOS1cat-mediated loading of EDA-GTP-DY-647P1 on His-KRAS G12C, 20° C.; read-out: Nucleotide conversion of HTRF IC50
T2 sequence (Q07889 564-1049): T1 sequence (Q07889 564-1049)
Protocol: Test Example 2 Guanine Nucleotide Exchange Test
This test quantitatively investigates the ability of SOS to mediate KRAS activation. KRAS G12C with a His tag was added to the system, anti-His antibody labeled with lanthanide Eu was combined with the system, then auxiliary protein SOS1cat and GTP analogue EDA-GTP-DY-647P1 with fluorophore were added thereto, the GTP analogue with fluorophore was loaded on KRAS G12C with the assistance of the auxiliary protein, and then energy resonance transfer occurred between Anti-6HS-Cryptate (FRET donor) and EDA-GTP-DY-647P1 (FRET acceptor).
However, after pretreatment with SOS1 inhibitor compounds, the ability of SOS1 to bind and mediate KRAS activation was weakened, and the ability of FRET between donor and acceptor was weakened.
Test buffer was prepared with the following components: HEPES pH 7.4: 20 mM; NaCl: 150 mM; MgCl2: 0.5 mM; DTT: 2 mM; BSA: 0.05%; and Igepal: 0.0025%.
KRAS G12C working solution, SOS1cat working solution and blank control solution were prepared with the test buffers; wherein the KRAS G12C working solution contained 100 nM His-KRAS G12C and 2 nM […]; the SOS1cat working solution contained 20 nM SOS1cat and 200 nM EDA-GTP-DY-647P1; and the blank control solution contained 100 nM EDA-GTP-DY-647P1.
The whole test procedures were completed at 20° C.

[1] = tested on: H358 human non-small cell lung cancer cells; assay: Inhibition test of in vitro cell level phosphorylation activity (pERK); assay type: cell-based; conditions: NCI-H358, ERK phosphorylation inhibition, compound 1 h
Protocol: Test Example 1 Inhibition Test of In Vitro Cell Level Phosphorylation Activity
1.2 Test Method for In Vitro Cell Level Phosphorylation Activity
A dish of H358 human non-small cell lung cancer cells (Nanjing Cobioer Biosciences Co., Ltd.) in logarithmic growth phase and good cell condition were added to a centrifuge tube and centrifuged at 1000 rpm for 5 min in a low speed benchtop centrifuge. The supernatant was discarded, and 5 mL of a plating medium containing 5% FBS was added using a pipette for cell resuspension. The cell suspension was loaded on a cell counter for counting, and diluted with the plating medium to adjust the cell density to 1.5×10^5 cells/mL. The cells were seeded on a black clear-bottom 384-well plate at 40 μL/well using a multi-channel pipette, and cultured overnight in a cell incubator at 37° C., 5% CO2 and saturated humidity. […] The medium was discarded after 1 h, 40 μL, of 4% polyoxymethylene was added to each well, and the plate was incubated for 20 min at room temperature and washed with PBS. […] 20 μL of 5% BSA blocking buffer was added to each well, and the blocking buffer was discarded after the plate was blocked for 1 h at room temperature. 20 μL of the primary antibody mixed solution was added to each well, wherein Rabbit anti-pERK was diluted at 1:1000 (final concentration) and mouse anti-GAPDH was diluted at 1:5000 (final concentration), and the plate was incubated overnight at 4° C. and washed with PBST. 20 μL of the secondary antibody mixed solution was added to each well, wherein goat anti rabbit 800 and goat anti mouse 647 were both diluted at 1:1000 (final concentration), and the plate was incubated in the dark at room temperature for 45 min and washed with PBST.

SMILES: Cc1nc(N[C@H](C)c2cccc(C(F)F)c2F)c2cc(P3(=O)CCN(S(=O)(=O)C4CC4)CC3)ncc2n1 [Example 21]
- IC50 (KRAS-G12C/SOS1): 0.058 µM
- IC50 (K562 cells): 0.187 µM
- IC50 (SOS1cat / KRAS G12C): 0.481 µM

SMILES: Cc1nc(N[C@H](C)c2cccc(C(F)(F)F)c2F)c2cc(P3(=O)CCCC3)ncc2n1 [Example 43]
- IC50 (KRAS-G12C/SOS1): 0.215 µM
- IC50 (K562 cells): 1.07 µM
- IC50 (SOS1cat / KRAS G12C): 0.717 µM

SMILES: COc1cc2nc(C)nc(N[C@H](C)c3cccc(C(F)F)c3C)c2cc1P1(=O)CCN(C(C)=O)CC1 [Example 12]
- EC50 [1]: 0.103 µM

SMILES: COc1cc2nc(C)nc(N[C@H](C)c3cccc(C(F)F)c3C)c2cc1P1(=O)CCN(C(=O)C2CC2)CC1 [Example 14]
- EC50 [1]: 0.108 µM

SMILES: Cc1nc(N[C@H](C)c2cccc(C(F)F)c2F)c2cc(P3(=O)CCN(S(C)(=O)=O)CC3)ccc2n1 [Example 27]
- IC50 (KRAS-G12C/SOS1): 0.061 µM
- IC50 (K562 cells): 0.469 µM
- IC50 (SOS1cat / KRAS G12C): 0.542 µM

SMILES: Cc1nc(N[C@H](C)c2cccc(C(F)(F)F)c2F)c2cc(P3(=O)CCCCC3)ncc2n1 [Example 42]
- IC50 (KRAS-G12C/SOS1): 0.081 µM
- IC50 (K562 cells): 0.562 µM
- IC50 (SOS1cat / KRAS G12C): 0.572 µM

SMILES: COc1cc2nc(C)nc(N[C@H](C)c3cc(N)cc(C(F)(F)F)c3C)c2cc1P1(=O)CCN(C(C)=O)CC1 [Example 18]
- EC50 [1]: 0.071 µM

SMILES: COc1cc2nc(C)nc(N[C@H](C)c3cc(N)cc(C(F)F)c3)c2cc1P1(=O)CCCCC1 [Example 65]
- IC50 (KRAS-G12C/SOS1): 0.056 µM
- IC50 (K562 cells): 0.433 µM
- IC50 (SOS1cat / KRAS G12C): 0.482 µM

SMILES: COc1cc2nc(C)nc(N[C@H](C)c3cccc(C(C)(F)F)c3F)c2cc1P1(=O)CCN(C(=O)C2CC2)CC1 [Example 17]
- EC50 [1]: 0.082 µM

SMILES: Cc1nc(N[C@H](C)c2cccc(C(F)(F)F)c2)c2cc(P3(=O)CCN(C)CC3)ncc2n1 [Example 49]
- IC50 (K562 cells): 2.15 µM
- IC50 (SOS1cat / KRAS G12C): 1.47 µM

SMILES: Cc1nc(N[C@H](C)c2cccc(C(C)(F)F)c2F)c2cc(P3(=O)CCN(C(=O)C4CCC4)CC3)ncc2n1 [Example 52]
- IC50 (K562 cells): 0.095 µM
- IC50 (SOS1cat / KRAS G12C): 0.455 µM

SMILES: CNCc1ccccc1-c1csc([C@@H](C)Nc2nc(C)nc3cnc(P4(=O)CCN(C(=O)C5CC5)CC4)cc23)c1 [Example 54]
- IC50 (K562 cells): 0.084 µM
- IC50 (SOS1cat / KRAS G12C): 0.486 µM

SMILES: Cc1nc(N[C@H](C)c2cccc(C(F)F)c2F)c2cc(P3(=O)CCN(S(C)(=O)=O)CC3)ncc2n1 [Example 20]
- IC50 (KRAS-G12C/SOS1): 0.078 µM
- IC50 (K562 cells): 0.292 µM
- IC50 (SOS1cat / KRAS G12C): 0.482 µM

SMILES: COc1cc2nc(C)nc(N[C@H](C)c3cccc(C(C)(F)F)c3F)c2cc1P1(=O)CCN(C(C)=O)CC1 [Example 15]
- EC50 [1]: 0.148 µM

Source: patent publication US12565511B2, “SOS1 inhibitor containing phosphorus” (Chia Tai Tianqing Pharmaceutical Group Co., Ltd., priority 2020, dated 2026)
